Experimental findings from patent publication US10456465B2, “Compositions, kits, and methods for the diagnosis prognosis, monitoring, treatment and modulation of post-transplant lymphoproliferative disorders and hypoxia associated angiogenesis disorders using galectin-1” (Dana-Farber Cancer Institute, Inc., priority 2009, dated 2019) are described below.

One experiment relates to mice (Matrigel plugs). The experiment is described as follows: In vivo vascularization of Matrigel sponges. As to conditions: Gal1 0.1 or 3 μM; 6 days; hemoglobin content. Details: species or system mouse. As to the method:
Invasion assays were performed using the BioCoat Angiogenesis system (BD Biosciences) following manufacturer's recommendations. For assessment of in vivo angiogenesis, growth factor-reduced Matrigel (BD Biosciences) was mixed with Gal1 (0.1 or 3 μM) with or without lactose (30 mM). In another set of experiments, serum-free CM from KS cells infected or not with a retroviral vector expressing Gal1 shRNA and cultured under hypoxic or normoxic conditions, were added to unpolymerized Matrigel and injected subcutaneously into the flanks of either wild-type or Lgals1^−/− (B6) mice or nude mice using a cold syringe. Matrigel embedded with buffer alone was used as negative control and a cocktail containing VEGF (50 ng/ml), heparin (50 U/ml) and TNF (2 ng/ml) was used as positive control. After 6 days, Matrigel plugs were collected by surgery, photographed and weighed. Samples were minced and diluted in water to measure hemoglobin content using the Drabkin reagent kit (Sigma). Each sample was normalized to 100 mg of recovered gel and confronted with a standard curve of mouse blood hemoglobin.

The test system of experiment [1] is EBV-specific CD8+ T cells. The experiment is described as follows: rGal1-induced killing of EBV-specific CTLs. The class given is cell-based, human. Particulars: rGal1 alone, 1.25, 2.5 or 5 μM; 4 h; 7AAD. The method, then:
After informed consent, 40-60 ml of peripheral blood from healthy donors was used to generate both EBV-transformed LCLs and EBV-specific CTLs (Straathof et al. (2005) Blood 105:1898-904). In brief, 5×10^6 peripheral blood mononuclear cells (PBMCs) were incubated with concentrated culture supernatant from the marmoset B-lymphoblastoid cell line, B95-8, in the presence of 1 μg/ml cyclosporin A (Sandoz, Vienna, Austria) to establish a LCL. Subsequently, PBMCs (2×10^6 per well of a 24-well plate) were stimulated with irradiated LCLs (at 4,000 rads) at an effector-stimulator (E/S) ratio of 40:1. After 10 days, viable cells were restimulated with irradiated LCLs (at 4:1 E/S ratio). CTLs were expanded by weekly stimulations with autologous irradiated LCLs (at 4:1 E/S ratio) in the presence of recombinant human interleukin-2 (rhIL-2, Proleukin; Chiron Emeryville, Calif.) at concentration of 40 U/ml. After 5 cycles of stimulation, CTLs were tested for EBV specificity and cryopreserved. […]
CTLs were thawed in AIM-V media (Invitrogen) containing 10 U/ml of DNAse I (Roche Applied Science, Indianapolis, Ind.) and rested in culture overnight. […] After 4 hours, the viability of EBV-specific CD8^+ T cells was measured using 7AAD and APC-Cy7-labelled CD8 (BD Biosciences, San Jose, Calif.).

For the next experiment, the target named is T1, Gal3 (Homo sapiens, UniProt P17931).
T1 construct: made in house
The experiment is described as follows: Binding of 488-Gal3 to HUVEC. As to conditions: 488-Gal3 20 μg/ml, mAb 0.5 μM. As to the method: For glycophenotyping, ECs were incubated with biotinylated L-PHA, LEL, SNA, MAL II, PNA and HPA (all from Vector). Recombinant Gal1 was purified as described in Ilarregui et al. (2009) Nat Immunol 10, 981-991. For binding assays, ECs were incubated for 1 h at 4° C. with dyLight 488-labeled galectins in the absence or presence of lactose, sucrose, anti-Gal1 or isotype control mAb or following transfection with GnT5, GCNT1 or scrambled siRNA. Cells were analyzed on a FACSAria (BD Biosciences). For segregation, ECs were treated with Gal1 for 1 h, fixed and incubated for 1 h with anti-human VEGFR2 antibody (55B11; Cell Signaling) as described in Ilarregui et al. (2009) Nat Immunol 10, 981-991. Cells were analyzed on a Nikon laser confocal microscope (Eclipse E800).
DyLight 488-conjugated Gal1 (488-Gal1) was obtained using DyLight labeling kit (Thermo Scientific). Inhibitors of Jak2-STAT3 (AG490; 5 μM), Jnk-SAP (SP600125; 20 μM), p38 (SB202190; 10 μM), HIF-1α (3 μM) and O-glycosylation (benzyl-α-Ga1NAc; 2 mM) were from Calbiochem. Inhibitors of Erk1/2 (U0126; 5 μM), PI(3)K-Akt (Ly294002; 2 μM) and NF-κB (BAY 11-7082; 1 μM), ROS (N-acetyl-cysteine; NAC), N-glycosylation (swainsonine; 3 μM), lactose or sucrose (30 mM) were from Sigma. PNGase F (25 U/μg protein) was from New England Biolabs. […]

For experiment [2], the target named is recombinant human Gal1 (rGal1) (Homo sapiens, UniProt P09382). The experiment is described as follows: Anti-Gal1 mAb neutralization of rGal1-induced apoptosis of activated T cells. It is filed as cell-based. As to conditions: 10 μM rGal1 pre-incubated with 5 μM mAb; 16 h; Annexin V-FITC/PI. The method, then:
Normal T cells were purified and activated with a combination of αCD3 (0.1 μg/ml) and αCD28 (0.5 μg/ml) as previously described (Juszczynski et al. (2007) Proc Natl Acad Sci USA 104:13134-9). Ten μM recombinant human Gal1 (rGal1) was pre-incubated with 5 μM anti-Gal1 mAb 8F4F8G7 or isotype control IgG2b2, (Rockland Immunochemicals Inc., Boyertown, Pa.) or medium alone at 37° C. for 30 min. Thereafter, rGal1+/− antibody was added to in vitro αCD3 and αCD28 activated T cells. After 16 h treatment, cells were harvested for apoptosis analysis using Annexin V-FITC and PI (BD Biosciences, San Jose, Calif.) flow cytometry as previously described (Juszczynski et al. (2007) Proc Natl Acad Sci USA 104:13134-9).

Sequence of recombinant human Gal1 (rGal1) (P09382 whole entry): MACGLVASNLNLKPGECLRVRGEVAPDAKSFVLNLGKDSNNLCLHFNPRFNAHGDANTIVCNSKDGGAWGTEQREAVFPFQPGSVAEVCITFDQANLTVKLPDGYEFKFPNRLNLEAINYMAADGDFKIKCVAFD
T1 sequence (P17931 whole entry, species assumed): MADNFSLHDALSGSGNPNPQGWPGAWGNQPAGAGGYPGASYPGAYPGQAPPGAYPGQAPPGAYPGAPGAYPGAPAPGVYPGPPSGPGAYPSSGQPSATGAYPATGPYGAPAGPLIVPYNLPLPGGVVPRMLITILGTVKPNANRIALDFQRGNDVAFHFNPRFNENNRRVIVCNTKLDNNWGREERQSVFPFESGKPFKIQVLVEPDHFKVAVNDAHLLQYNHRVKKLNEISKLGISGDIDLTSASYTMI

Take rGal1: recombinant human galectin-1: the “vascularization of Matrigel sponges containing recombinant Gal1” value with mice (Matrigel plugs) is on record as “rapidly became vascularized”. Moreover, the “apoptosis of EBV-specific CD8+ T cells” value in experiment [1] is recorded as “induced massive apoptosis”.

B1: anti-Gal1 monoclonal antibody 8F4F8G7 (antibody, V domains shown)
VH: EVQLQQSVAEFVRPGASVRLSCTASGFNIKNTYIHWVRQRPEQGLEWIGKIDPANGNTKYVPEFQGKATMTADTSSNTVYLHLSSLTSEDTAIYYCVDGYYGWYFAVWGTGTTVTVSS
VL: QAVVTQESALTTSPGETVTLTCRSSTGAVTTSNYANWVQEKPDHLFTGLIGATNNRAPGVPARFSGSLIGDKAVLTITGAQTEDEAIYFCALWYRNHFIFGSGTKVTVL
notes: Murine hybridoma mAb (deposit PTA-10535), lambda light chain; also called 14-19 8F4-F8-G7; clone 8F4.8F.67
As to B1, in the experiment with Gal3, the “effect on binding of Gal3 to the EC surface” value is “did not interfere”. Moreover, in experiment [2], the “rGal1-induced apoptosis of αCD3/αCD28-activated T cells” value is “almost completely inhibited”.
